From publication PMC12292521, “Discovery of a Potent Antimicrobial Peptide Through Rational Design: A New Frontier in Pathogen Control” (Biomolecules, 2025)
Peptide text beside a SMILES is read from it.

Columns and labels:
[1] = system: S. aureus (MRSA) biofilm; assay: Antibiofilm activity (crystal violet); format: cell-based, Staphylococcus aureus; conditions: RKW at ½ and ¼ MIC (25 and 12.5 μM); OD 630 nm vs control; three independent experiments; ANOVA p < 0.01; greatest inhibition at ¼ MIC
Experimental: (§1) Therefore, the minimum inhibitory concentration (MIC) and MBC were evaluated. […] Subsequently, the antibiofilm activity of the peptide was tested according to Festa et al.. Specifically, two different concentrations of peptide were used, corresponding to ½ and ¼ of the estimated MIC value, which guarantee the optimal bacterial growth conditions necessary to allow biofilm production. Biofilm production (%) was calculated based on Optical Density (measured at 630 nm) outputs, compared to the control group.
(§2) To compare the percentages of biofilm production across different samples, a one-way analysis of variance (ANOVA) was conducted using Prism v. 10.0 (GraphPad, Graph-Pad Software, La Jolla, CA, USA). Significant differences between sample pairs were identified with Tukey’s post hoc test (p < 0.05).

[2] = system: P. aeruginosa biofilm; assay: Antibiofilm activity (crystal violet); format: cell-based, Pseudomonas aeruginosa; conditions: RKW at ½ and ¼ MIC (10 and 5 μM); OD 630 nm vs control; three independent experiments; ANOVA p < 0.05; greatest inhibition at ¼ MIC
Experimental: as §1, §2

[3] = 100 µM peptide, 37 °C, 24 h, RP-HPLC C18, absorbance 280 nm, peak area vs time 0, three independent studies
Experimental: A total of 3.7 mg of peptide was dissolved in 1 mL of Milli-Q H2O to obtain a 2 mM stock solution. A 5% solution of Newborn Calf Serum (NCS) was prepared in Dulbecco’s phosphate-buffered saline (DPBS) (v/v) and then subjected to heat-inactivation by incubating the solution at 57 °C for 45 min (Hi-NCS). Therefore, 100 µM of peptide was incubated in 5% Hi-NCS at 37 °C for 24 h in DPBS. […] Therefore, the samples were centrifuged at 13,000 rpm for 5 min, and the supernatants were diluted in an equal volume of water. Finally, 200 µL of the collected solutions were loaded onto a μBondapak reversed-phase C18 column (Waters, 3.9 mm × 300 mm) connected to an HPLC system (Shimadzu, Milan, Italy), using a linear gradient of acetonitrile (5–95%) in water containing 0.1% TFA at a flow rate of 1 mL/min, and absorbance was detected at 280 nm. […] Samples containing only Hi-NCS were also analyzed. The same experiments were performed in the presence of NCS, not subjected to the heat inactivation treatment. Results are the average of three independent studies.

[4] = system: Aspergillus brasiliensis ATCC 16404; assay: Quantitative suspension test, fungicidal activity, BS EN 1650:2019; format: cell-based; parameters: key to Fungicidal activity verdict: Active: For fungi: ACTIVE if log R ≥ 4 according to BS EN 1650:2019; Not Active: For fungi: ACTIVE if log R ≥ 4 according to BS EN 1650:2019; conditions: spores, 60 min, 37 °C, BSA 0.3 g/L
Description: (§3) The method is based on the suspension test according to BS EN 1276:2019, which specifies a quantitative suspension analysis for the evaluation of the bactericidal activity of chemical disinfectants and antiseptics used in food, industrial, domestic, and institutional areas against a panel of microorganisms under conditions that more closely simulate practical use. Briefly, S. aureus ATCC 6538, P. aeruginosa ATCC 15442, and Staphylococcus epidermidis ATCC 12228 were used as test organisms at a bacterial concentration of 1.0 × 10^8 colony-forming units (CFU) per mL (CFU/mL). In the test, BSA (Bovine Serum Albumin) (0.3 g/L) was used as an interfering substance to mimic clean conditions. […] The reaction mixture was incubated at 37 °C for 60 min before transferring each sample to a tube containing a neutralizer solution consisting of 30 g/L polysorbate 80, 1 g/L sodium thiosulfate, 3 g/L lecithin, 1 g/L tryptone, 8.5 g/L NaCl, 100 mL/L phosphate buffer and water. The negative control (untreated cells) was prepared using PBS instead of biocides. The solutions were then plated onto Tryptone Soy Agar (TSA) and incubated at 37 °C for 48 h to determine the logarithmic CFU/mL reduction, according to the following Equation:(2) log R = log (N0) − log (Na) where R refers to the reduction in viability, N refers to the number of CFU/mL in the test mixture at the beginning of the contact time, and Na refers to the number of CFU/mL in the test mixture at the end of the contact time. […] The test method and the minimum requirements for fungicidal activity of chemical disinfectant and antiseptic products were performed according to BS EN 1650:2019. The fungicidal activity was studied using the vegetative cells of Candida albicans ATCC 10231 and the spores of Aspergillus brasiliensis ATCC 16404 as test organisms. […] The mixture was maintained at 37 °C for a contact time of 60 min. At the end of this contact time, an aliquot was taken, and the fungicidal activity was immediately neutralized with a solution consisting of 30 g/L polysorbate 80, 1 g/L sodium thiosulfate, 3 g/L lecithin, 1 g/L tryptone, 8.5 g/L NaCl, 100 mL/L phosphate buffer and water. The samples were then plated onto malt extract agar (MEA) and incubated at 30 °C for 48 h to determine the numbers of surviving fungi as the logarithmic CFU/mL reduction, calculated according to Equation (2).

[5] = system: Candida albicans ATCC 10231; assay: as above; format: cell-based; parameters: key to Fungicidal activity verdict: Active: For fungi: ACTIVE if log R ≥ 4 according to BS EN 1650:2019; Not Active: For fungi: ACTIVE if log R ≥ 4 according to BS EN 1650:2019; conditions: vegetative cells, 60 min, 37 °C, BSA 0.3 g/L
Description: as §3

With `CC[C@H](C)[C@H](NC(=O)[C@H](Cc1c[nH]c2ccccc12)NC(=O)[C@H](CCCCN)NC(=O)[C@@H](N)CCCNC(=N)N)C(=O)N[C@@H](CC(C)C)C(=O)N[C@@H](CCCCN)C(=O)N[C@@H](Cc1c[nH]c2ccccc12)C(=O)N[C@@H](CC(C)C)C(=O)N[C@@H](CCCNC(=N)N)C(=O)N[C@H](C(=O)N[C@@H](Cc1c[nH]c2ccccc12)C(=O)N[C@@H](CCCCN)C(=O)N[C@@H](CCCCN)C(N)=O)[C@@H](C)O` [RKW] (H-RKWILKWLRTWKK-NH2; N-terminus assumed) the Biofilm production [1] was “significantly inhibited the biofilm production”, the Biofilm production [2] was “significantly inhibited the biofilm production” and the “Stability of RKW in heat-inactivated serum (Hi-NCS)” value ([3]; 5% Hi-NCS (57 °C, 45 min) in DPBS) was “no peptide breakage”. The “Stability of RKW in serum, not heat-inactivated (NCS)” value ([3]; 5% NCS in DPBS) was “complete degradation pattern”, the Fungicidal activity verdict ([4]; RKW 5 µM) was “Na = 3.40 × 10^6 log Na = 6.53 log R = −0.28 Not Active” and the “Na (CFU/mL at the end of the contact time)” value ([4]; RKW 5 µM) was 3.40 × 10^6 CFU/mL. For the same compound, the Fungicidal activity verdict ([4]; RKW 10 µM) was “Na = 3.30 × 10^6 log Na = 6.52 log R = −0.29 Not Active”, the “Na (CFU/mL at the end of the contact time)” value ([4]; RKW 10 µM) was 3.30 × 10^6 CFU/mL and the Fungicidal activity verdict ([4]; RKW 20 µM) was “Na = 2.20 × 10^6 log Na = 6.34 log R = −0.09 Not Active”. For the same compound, the “Na (CFU/mL at the end of the contact time)” value ([4]; RKW 20 µM) was 2.20 × 10^6 CFU/mL, the Fungicidal activity verdict ([4]; RKW 50 µM) was “Na = 2.20 × 10^6 log Na = 6.34 log R = −0.09 Not Active” and the “Na (CFU/mL at the end of the contact time)” value ([4]; RKW 50 µM) was 2.20 × 10^6 CFU/mL. The Fungicidal activity verdict ([4]; RKW 100 µM) was “Na = 2.20 × 10^6 log Na = 6.34 log R = −0.09 Not Active”, the “Na (CFU/mL at the end of the contact time)” value ([4]; RKW 100 µM) was 2.20 × 10^6 CFU/mL and the Fungicidal activity verdict ([5]; RKW 5 µM) was “Na = 7.70 × 10^4 log Na = 4.89 log R = 1.71 Not Active”. For the same compound, the “Na (CFU/mL at the end of the contact time)” value ([5]; RKW 5 µM) was 7.70 × 10^4 CFU/mL, the Fungicidal activity verdict ([5]; RKW 10 µM) was “Na = 1.08 × 10^3 log Na = 3.03 log R = 3.57 Not Active” and the “Na (CFU/mL at the end of the contact time)” value ([5]; RKW 10 µM) was 1.08 × 10^3 CFU/mL. For the same compound, the Fungicidal activity verdict ([5]; RKW 20 µM) was “Na = 2.75 × 10^2 log Na = 2.44 log R = 4.16 Active”, the “Na (CFU/mL at the end of the contact time)” value ([5]; RKW 20 µM) was 2.75 × 10^2 CFU/mL and the Fungicidal activity verdict ([5]; RKW 50 µM) was “Na = 2.75 × 10^2 log Na = 2.44 log R = 4.16 Active”. For the same compound, the “Na (CFU/mL at the end of the contact time)” value ([5]; RKW 50 µM) was 2.75 × 10^2 CFU/mL, the Fungicidal activity verdict ([5]; RKW 100 µM) was “Na = 2.75 × 10^2 log Na = 2.44 log R = 4.16 Active” and the “Na (CFU/mL at the end of the contact time)” value ([5]; RKW 100 µM) was 2.75 × 10^2 CFU/mL.
